Experimental data from publication PMC8038955, “Antimicrobial D-amino acid oxidase-derived peptides specify gut microbiota” (Cellular and Molecular Life Sciences: CMLS, 2021).
Values after ≈ are worked out from the molar mass of the structure shown. Where two headings read alike, the source gives them in different places. Where a SMILES comes first, the peptide text is derived from it. Bridges are numbered along the chain shown (N, C = ends). Where no end group is shown, it is not given here. [ ]: non-standard residue; d: D form. The star is where a group is joined. X1 = CC[C@H](C)CCCCC(=O)*; Dab = NCC[C@H](N)C(=O)O

Tests used:
L. fermentum ATCC 14931 = experiment: Lactobacilli susceptibility, broth microdilution (ISO 10932/IDF 233); type: cell-based, Lactobacillus fermentum; conditions: Limosilactobacillus fermentum
Description: (§1) To assess the effect of antibacterial peptides on lactobacilli, Lactobacillus acidophilus ATCC 4356, Lactobacillus casei ATCC 393, Lactobacillus fermentum ATCC 14931, and Lactobacillus rhamnosus ATCC 7469 strains (from American Type Culture Collection) were used. Before performing the test, cultures were streaked on Lactobacilli MRS agar (MRS) and incubated for 24 h at 37 °C in an anaerobic chamber (BD Difco, Detroit, MI, USA). Antibacterial susceptibility testing was performed according to the ISO 10932/IDF 233 standard (ISO, 2010). […] Typically, a twofold serial dilution of stock solutions was performed in Lactobacilli MRS broth to obtain solutions in the 0.2–100 µM concentration range. Bacterial inocula were prepared by suspending colonies, from 24 h incubated Lactobacilli MRS agar plates, into 2 mL of 0.85% NaCl solution. […] MIC values were estimated after incubating the plates under anaerobic conditions at 37 °C for 48 h.

L. casei ATCC 393 = experiment: as above; type: cell-based, Lactobacillus casei; conditions: Lacticaseibacillus casei
Description: as §1

L. rhamnosus ATCC 7469 = experiment: as above; type: cell-based, Lactobacillus rhamnosus; conditions: Lacticaseibacillus rhamnosus
Description: as §1

L. acidophilus ATCC 4356 = experiment: as above; type: cell-based; conditions: Lactobacillus acidophilus
Description: as §1

[1] = test system: Acinetobacter baumanii ATCC 17878; type: cell-based; conditions: control antibiotic; broth microdilution, Nutrient Broth 0.5×, overnight 37 °C
Description: (§2) MIC (Minimum Inhibitory Concentration) analyses were performed on Gram-positive and Gram-negative bacteria by a broth microdilution method previously described, with minor modifications. In details, assays were carried out in Nutrient Broth 0.5× (Difco, Detroit, MI, USA) using sterile 96-well polypropylene microtiter plates (cat. 3879, Costar Corp., Cambridge, MA, USA). Bacterial strains were grown in Luria–Bertani (LB) medium overnight at 37 °C and then diluted in nutrient broth at a final concentration of ~ 5 × 10^5 CFU/mL per well. […] Peptide concentrations were determined by spectrophotometric analysis using the extinction coefficients calculated by the ProtParam tool (http://web.expasy.org/protparam/). Twofold serial dilutions of peptides were carried out in the test wells (0.2–100 μM concentration range). Plates were incubated overnight at 37 °C. MIC value was taken as the lowest concentration at which growth was inhibited. Three independent experiments were performed for each MIC value. The peptide antibiotic polymyxin B and vancomycin (Sigma, St. Louis, MO) were tested as control. MIC values were measured on: Pseudomonas aeruginosa PAO1, Acinetobacter baumanii ATCC 17878, Escherichia coli ATCC 25922, Salmonella typhimurium ATCC 14028, Salmonella enteritidis 706 RIVM (kindly provided by Prof. E. Veldhuizen, Utrecht University, Holland), Staphylococcus aureus ATCC 6538P, and Enterococcus faecalis ATCC 29212.

[2] = test system: Escherichia coli ATCC 25922; type: cell-based
Description: as §2

[3] = test system: Pseudomonas aeruginosa PAO1; type: cell-based; conditions: control antibiotic; broth microdilution, Nutrient Broth 0.5×, overnight 37 °C
Description: as §2

[4] = test system: Salmonella enteritidis 706 RIVM; type: cell-based; conditions: control antibiotic; broth microdilution, Nutrient Broth 0.5×, overnight 37 °C
Description: as §2

[5] = test system: Salmonella typhimurium ATCC 14028; type: cell-based
Description: as §2

[6] = test system: Enterococcus faecalis ATCC 29212; experiment: microbe, parasite or virus in culture; type: cell-based
Description: as §2

[7] = test system: selected Gram-positive and Gram-negative strains; experiment: Antimicrobial activity of mucosal peptides on selected strains; type: cell-based; conditions: summary of Table 3
Description: as §2, with “The peptide antibiotic polymyxin B and vancomycin (Sigma, St. Louis, MO) were tested as control.” left out

[8] = test system: Escherichia coli ATCC 25922; type: cell-based; remark: listed apart in the source
Description: The Minimum Bactericidal Concentration (MBC) was determined from the broth dilution of MIC tests by subculturing cell mixtures on agar plates. The MBC was defined as the lowest concentration of antibacterial agent that kills ≥ 99.9% of bacterial cells. According to a widely accepted criterion, peptides were considered bactericidal if their MBC was no more than four times the MIC.

[9] = control antibiotic, broth microdilution, Nutrient Broth 0.5×, overnight 37 °C

Compound `CC[C@H]1OC(=O)[C@H](C)[C@@H](O[C@H]2C[C@@](C)(OC)[C@@H](O)[C@H](C)O2)[C@H](C)[C@@H](O[C@@H]2O[C@H](C)C[C@H](N(C)C)[C@H]2O)[C@](C)(O)C[C@@H](C)C(=O)[C@H](C)[C@@H](O)[C@]1(C)O` [Erythromycin] has an MIC (L. fermentum ATCC 14931; ATCC14931, Lactobacilli MRS broth, 3–8 × 10^5 CFU/mL, anaerobic, 37 °C, 48 h, 0.2–100 µM range, read-out: MIC) of 1.4 µM (≈ 1.03 µg/mL), an MIC (L. casei ATCC 393; ATCC393, Lactobacilli MRS broth, 3–8 × 10^5 CFU/mL, anaerobic, 37 °C, 48 h, 0.2–100 µM range, read-out: MIC) of 2.8 µM (≈ 2.06 µg/mL) and an MIC (L. rhamnosus ATCC 7469; ATCC7469, Lactobacilli MRS broth, 3–8 × 10^5 CFU/mL, anaerobic, 37 °C, 48 h, 0.2–100 µM range, read-out: MIC) of 0.7 µM (≈ 0.514 µg/mL). The MIC (L. acidophilus ATCC 4356; ATCC4356, Lactobacilli MRS broth, 3–8 × 10^5 CFU/mL, anaerobic, 37 °C, 48 h, 0.2–100 µM range, read-out: MIC) was 0.7 µM (≈ 0.514 µg/mL).

`CC[C@H](C)CCCCC(=O)N[C@@H](CCN)C(=O)N[C@H](C(=O)N[C@@H](CCN)C(=O)N[C@H]1CCNC(=O)[C@H]([C@@H](C)O)NC(=O)[C@H](CCN)NC(=O)[C@H](CCN)NC(=O)[C@H](CC(C)C)NC(=O)[C@@H](Cc2ccccc2)NC(=O)[C@H](CCN)NC1=O)[C@@H](C)O` [Polymyxin B, polymyxin B] (X1-[Dab]T[Dab][Dab][Dab][dF]L[Dab][Dab]T; lactam 4-C (inferred); N-terminus assumed) showed an MIC [1] of 0.5 µg/mL (≈ 0.415 µM), an MIC [2, 9] of 0.5 µg/mL and an MIC [3] of 0.25 µg/mL (≈ 0.208 µM). For the same compound, the MIC [4] was 0.5 µg/mL (≈ 0.415 µM) and the MIC [5, 9] was 0.12 µg/mL.

With `CN[C@H](CC(C)C)C(=O)N[C@H]1C(=O)N[C@@H](CC(N)=O)C(=O)N[C@H]2C(=O)N[C@H]3C(=O)N[C@H](C(=O)N[C@H](C(=O)O)c4cc(O)cc(O)c4-c4cc3ccc4O)[C@H](O)c3ccc(c(Cl)c3)Oc3cc2cc(c3O[C@@H]2O[C@H](CO)[C@@H](O)[C@H](O)[C@H]2O[C@H]2C[C@](C)(N)[C@H](O)[C@H](C)O2)Oc2ccc(cc2Cl)[C@H]1O` [Vancomycin, vancomycin] the MIC ([6]; Enterococcus faecalis, ATCC29212) was 2 µg/mL, the MIC (L. fermentum ATCC 14931; ATCC14931, 48 h) was greater than 100 µM and the MIC (L. casei ATCC 393; ATCC393, 48 h) was greater than 100 µM. It also gave an MIC (L. rhamnosus ATCC 7469; ATCC7469, 48 h) greater than 100 µM and an MIC (L. acidophilus ATCC 4356; ATCC4356, 48 h) greater than 100 µM.

For EAANLFGKILEEKKLSRLPPSHL [EAA], the MIC ([5]; ATCC 14028) was greater than 200 µM, the MIC ([6]; ATCC 29212) was greater than 200 µM and the “antibacterial activity (in words)” value [7] was “did not show any antibacterial activity”.

Compound LKNARIVGELTGFRPVRPQVRLE [LKN] has an MIC ([2]; ATCC 25922) of 50 µM, an MIC ([5]; ATCC 14028) greater than 200 µM and an MIC ([6]; ATCC 29212) greater than 200 µM. The MBC [8] was 50 µM.
